Reference: patent US20250171420A1 (Monte Rosa Therapeutics, Inc., priority 2022, published 2025)
Where two headings read alike, the source gives them in different places.

Columns and labels:
CK1α [1] = biological target: T1, CK1α (Homo sapiens, UniProt P48729+Q96SW2); experiment: CK1α NanoBit Assay (HiBiT-tagged CSNK1A1, HEK293 clonal lines); format: cell-based; conditions: read-out: CK1α DC50 (μM) 24 h; HEK293 HiBiT-CSNK1A1/LgBiT cells, 24 h incubation
T1 construct: HEK293 clonal lines with CRISPR KI HiBiT tag on CSNK1A1
T1 sequence (P48729 whole entry): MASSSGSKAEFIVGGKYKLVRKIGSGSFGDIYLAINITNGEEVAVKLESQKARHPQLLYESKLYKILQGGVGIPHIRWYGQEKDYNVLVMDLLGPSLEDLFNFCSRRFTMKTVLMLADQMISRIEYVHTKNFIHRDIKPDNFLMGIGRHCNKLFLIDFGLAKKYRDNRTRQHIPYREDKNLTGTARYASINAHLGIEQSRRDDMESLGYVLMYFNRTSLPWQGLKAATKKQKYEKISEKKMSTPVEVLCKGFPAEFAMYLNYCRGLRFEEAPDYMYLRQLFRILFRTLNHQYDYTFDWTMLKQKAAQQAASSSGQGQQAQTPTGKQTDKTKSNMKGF
T1 sequence (Q96SW2 whole entry): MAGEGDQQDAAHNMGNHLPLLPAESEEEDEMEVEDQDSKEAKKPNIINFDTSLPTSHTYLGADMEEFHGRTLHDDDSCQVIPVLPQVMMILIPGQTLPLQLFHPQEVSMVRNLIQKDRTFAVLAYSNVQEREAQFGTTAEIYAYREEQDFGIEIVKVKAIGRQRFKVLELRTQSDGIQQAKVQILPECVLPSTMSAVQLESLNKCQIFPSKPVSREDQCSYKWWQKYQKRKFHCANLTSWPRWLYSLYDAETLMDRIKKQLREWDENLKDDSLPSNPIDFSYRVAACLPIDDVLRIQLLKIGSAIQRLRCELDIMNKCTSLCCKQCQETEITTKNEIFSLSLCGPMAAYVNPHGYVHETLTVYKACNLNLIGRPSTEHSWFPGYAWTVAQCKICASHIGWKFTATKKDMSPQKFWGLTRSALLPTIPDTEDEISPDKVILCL
T1 sequence (Q16531 2-1140 partner limits assumed): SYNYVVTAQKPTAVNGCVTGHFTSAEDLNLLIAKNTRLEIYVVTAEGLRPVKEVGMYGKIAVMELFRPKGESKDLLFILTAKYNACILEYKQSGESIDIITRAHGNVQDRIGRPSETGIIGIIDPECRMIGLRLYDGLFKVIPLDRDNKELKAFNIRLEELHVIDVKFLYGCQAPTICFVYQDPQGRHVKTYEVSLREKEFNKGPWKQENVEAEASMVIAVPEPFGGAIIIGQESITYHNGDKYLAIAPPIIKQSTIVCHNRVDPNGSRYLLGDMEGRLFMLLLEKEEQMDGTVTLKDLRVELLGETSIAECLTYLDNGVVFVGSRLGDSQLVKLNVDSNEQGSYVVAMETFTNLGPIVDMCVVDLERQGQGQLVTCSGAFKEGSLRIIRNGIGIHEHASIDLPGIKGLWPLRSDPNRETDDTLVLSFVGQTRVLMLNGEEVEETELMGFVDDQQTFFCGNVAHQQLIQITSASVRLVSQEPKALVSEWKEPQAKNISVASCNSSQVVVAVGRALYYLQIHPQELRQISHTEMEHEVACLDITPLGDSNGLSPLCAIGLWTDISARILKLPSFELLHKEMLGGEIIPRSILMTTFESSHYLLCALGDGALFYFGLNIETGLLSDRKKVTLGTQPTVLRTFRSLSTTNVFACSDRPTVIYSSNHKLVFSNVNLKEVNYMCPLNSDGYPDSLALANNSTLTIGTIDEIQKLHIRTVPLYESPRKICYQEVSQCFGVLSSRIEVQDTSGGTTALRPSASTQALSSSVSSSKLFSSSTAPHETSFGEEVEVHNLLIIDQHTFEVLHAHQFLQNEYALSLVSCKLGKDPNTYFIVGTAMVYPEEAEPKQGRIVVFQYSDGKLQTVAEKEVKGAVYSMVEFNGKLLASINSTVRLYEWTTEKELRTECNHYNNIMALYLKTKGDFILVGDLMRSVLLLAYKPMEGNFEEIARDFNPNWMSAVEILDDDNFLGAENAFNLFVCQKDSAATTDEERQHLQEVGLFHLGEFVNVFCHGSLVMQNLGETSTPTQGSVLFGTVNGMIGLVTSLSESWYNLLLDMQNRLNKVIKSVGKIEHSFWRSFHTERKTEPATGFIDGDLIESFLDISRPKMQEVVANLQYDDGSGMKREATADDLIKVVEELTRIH
Procedure, shortened: (§1)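 HEK293 clones carrying a CRISPR knock-in HiBiT tag on CSNK1A1 and stably expressing LgBiT are treated with compound for 24 hours at 37° C, 5% CO2, then read by luminescence. Response is normalized as 100*(S−N)/(P−N) against plate negative and positive controls, and DC50 values are derived.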

CRBN/DDB1 = CRBN/DDB1 (Homo sapiens, UniProt Q96SW2); experiment: HTRF binding assay (displacement of Cy5-thalidomide probe from CRBN/DDB1)
Sequence of CRBN/DDB1 (Q96SW2 whole entry, species assumed): as the sequence (Q96SW2 whole entry) above
Sequence of CRBN/DDB1 (Q16531 whole entry partner, species assumed): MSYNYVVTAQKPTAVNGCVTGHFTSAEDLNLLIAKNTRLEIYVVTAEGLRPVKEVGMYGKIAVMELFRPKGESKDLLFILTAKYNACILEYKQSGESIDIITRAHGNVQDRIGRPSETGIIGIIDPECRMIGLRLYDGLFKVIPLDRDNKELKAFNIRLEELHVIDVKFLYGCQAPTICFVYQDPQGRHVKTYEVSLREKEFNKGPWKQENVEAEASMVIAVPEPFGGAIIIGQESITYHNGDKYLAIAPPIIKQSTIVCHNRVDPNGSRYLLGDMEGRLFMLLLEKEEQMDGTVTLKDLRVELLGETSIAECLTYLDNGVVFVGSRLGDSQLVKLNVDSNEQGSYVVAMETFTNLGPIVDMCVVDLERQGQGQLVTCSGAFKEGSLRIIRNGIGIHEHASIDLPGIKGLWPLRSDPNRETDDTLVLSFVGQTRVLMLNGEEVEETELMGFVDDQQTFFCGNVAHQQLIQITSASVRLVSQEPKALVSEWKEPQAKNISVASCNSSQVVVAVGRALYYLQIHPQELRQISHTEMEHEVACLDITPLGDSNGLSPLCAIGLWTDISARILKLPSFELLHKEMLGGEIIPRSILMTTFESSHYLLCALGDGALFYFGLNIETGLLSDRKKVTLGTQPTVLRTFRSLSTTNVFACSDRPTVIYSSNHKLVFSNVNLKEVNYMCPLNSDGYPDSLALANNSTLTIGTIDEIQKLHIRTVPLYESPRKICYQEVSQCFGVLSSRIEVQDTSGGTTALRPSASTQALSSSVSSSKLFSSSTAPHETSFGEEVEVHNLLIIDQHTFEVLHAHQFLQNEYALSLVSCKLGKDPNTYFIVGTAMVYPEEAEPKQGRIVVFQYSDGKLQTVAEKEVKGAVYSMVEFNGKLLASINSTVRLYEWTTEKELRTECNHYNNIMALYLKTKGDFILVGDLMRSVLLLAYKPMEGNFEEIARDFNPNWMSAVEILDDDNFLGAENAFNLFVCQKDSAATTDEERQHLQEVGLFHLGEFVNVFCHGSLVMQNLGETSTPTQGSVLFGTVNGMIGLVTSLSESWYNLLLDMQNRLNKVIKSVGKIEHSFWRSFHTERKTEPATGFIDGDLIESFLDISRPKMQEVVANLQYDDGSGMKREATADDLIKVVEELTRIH
Procedure, shortened: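 HTRF displacement of Cy5-thalidomide (100 nM) from His-tagged CRBN/DDB1 (2.5 nM) with anti-His Tb cryptate in 20 mM HEPES, 20 mM NaCl, 0.2 mM TCEP, 0.2 mM EDTA, 0.005% Tween20. 10-point 1:3 series, 30 min ambient. 665/620 nm ratio fitted 4-parameter for IC50; Ki by Cheng-Prusoff from geometric-mean IC50.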

CK1α [2] = biological target: T2, CK1α (Homo sapiens, UniProt P48729); experiment: CK1α NanoBit Assay (HiBiT-tagged CSNK1A1, HEK293 clonal lines); format: cell-based; conditions: HEK293 HiBiT-CSNK1A1/LgBiT cells, 24 h incubation
T2 construct: HEK293 clonal lines with CRISPR KI HiBiT tag on CSNK1A1
T2 sequence (P48729 whole entry): as the sequence (P48729 whole entry) above
T2 sequence (Q96SW2 whole entry, further chain): as the sequence (Q96SW2 whole entry) above
T2 sequence (Q16531 2-1140 partner limits assumed): as the sequence (Q16531 2-1140 partner limits assumed) above
Procedure, shortened: as §1

SKCO1 cell line = experiment: Growth inhibition, CyQUANT Direct Cell Proliferation Assay, SKCO1; format: cell-based; conditions: Homo sapiens
Method: (§2) SKCO1, LS180, and LS174T cell lines were purchased from ATCC. CW2 cell line was purchased from Riken. GP2D cell line was purchased from Sigma/ECACC. All cell lines were cultured in manufacturer's recommended media at 37° C., 5% CO2. Briefly, cells were suspended in 200 μL of media and seeded at 300 to 1,800 cells per well in tissue culture treated 96-well plates with black walls and clear bottom. Plates were incubated overnight and initial (To) read was performed the following day using CyQUANT Direct Cell Proliferation Assay Kit (Thermo Fisher Scientific) according to manufacturer's protocol. All compounds were solubilized in DMSO and prepared at 3-fold serial dilution, using 9 points starting at 30 μM as highest concentration, administered to cells and incubated for 120 to 168 hours, at which point CyQUANT assay measurement was performed using Acumen Cellista instrument (Ex/Em 480/520 nm). Media-only wells were used as blank, and 0.3% DMSO was used as DMSO-treated cell control. Growth inhibition (percent response) was calculated using the following formula in Excel: “=if ([Compound treated Day N]>[Untreated Day 0, AVG], ([Compound treated Day N]−[Untreated Day 0, AVG])/([Untreated Day N]−[Untreated Day 0, AVG])*100, ([Compound Treated Day N]−[Untreated Day 0, AVG])/([Untreated Day 0, AVG])*100)”. GI50 is the response corresponding to the 50% of untreated control.
(§3) GI50 data are reported in Tables 4a, 4b, 4c, 4d, and 4e for compounds in Table 1. In Tables 4a, 4b, 4c, 4d, and 4e below, According to the code, A represents a GI50 value of ≤0.1 μM, B represents a GI50 value>0.1 μM and ≤1 μM, C represents an GI50 value>1 μM.

CW2 cell line = experiment: Growth inhibition, CyQUANT Direct Cell Proliferation Assay, CW2; format: cell-based; conditions: Homo sapiens
Method: as §2, §3

GP2D cell line = experiment: Growth inhibition, CyQUANT Direct Cell Proliferation Assay, GP2D; format: cell-based
Method: as §2, §3

LS180 cell line = experiment: Growth inhibition, CyQUANT Direct Cell Proliferation Assay, LS180; format: cell-based; conditions: Homo sapiens
Method: as §2, §3

LS174T cell line = experiment: Growth inhibition, CyQUANT Direct Cell Proliferation Assay, LS174T; format: cell-based; conditions: Homo sapiens
Method: as §2, §3

[3] = Oral pharmacokinetics in male BALB/c mice; format: in vivo; conditions: mouse, plasma, mean ± SD
Method: Male BALB/c mice were administered a discrete, oral (PO) dose of Compound 288, Compound 335, Compound 102, or Compound 303 at 10 mg/kg; all mice were fasted except for mice that were dosed with Compound 288. Male BALB/c mice were fasted overnight and administered a cassette dose, PO dose of Compound 303 and other compounds at 5 mg/kg per compound.
Blood samples were collected serially from three animals/time-point following PO administration of the test compounds to the mice and placed in tubes containing K2EDTA. The blood samples were centrifuged, and the aliquots of the resulting plasma stored frozen at −60 to −90° C.
The plasma samples were analyzed by LC-MS/MS to determine concentrations of the test compounds. The in-life portion of the study and the bioanalysis of plasma samples was conducted at Wuxi (China).
The pharmacokinetic parameters for the tested compounds were calculated by non-compartmental analysis using Phoenix WinNonlin software.

[4] = CRBN/DDB1 2.5 nM, Cy5-Thalidomide 100 nM, 30 min, geometric mean, read-out: HTRF_Thali_Disp_DR_geo_IC50
[5] = SK-CO-1, SKCO1, 120 to 168 hours, read-out: SKCO1 GI50
[6] = CW-2, CW2, 120 to 168 hours, read-out: CW2 GI50
[7] = GP2D, 120 to 168 hours, read-out: GP2D GI50
[8] = LS180, 120 to 168 hours, read-out: LS180 GI50
[9] = 120 to 168 hours, read-out: LS174T GI50

Row | DC50 (CK1α [2]) [µM] | IC50 (CRBN/DDB1; [4]) [nM] | GI50 (SKCO1 cell line; [5]) [µM] | SMILES | GI50 (CW2 cell line; [6]) [µM] | GI50 (GP2D cell line; [7]) [µM] | GI50 (LS180 cell line; [8]) [µM] | GI50 (LS174T cell line; [9]) [µM] | further results
1 |  |  |  | CC(C)(C)C1CN(C(=O)Nc2ccc3c(c2)CN(C2CCC(=O)NC2=O)C3=O)c2ccccc21 (stereo not drawn) [Compound 187, 3-(tert-butyl)-N-(2-(2,6-dioxopiperidin-3-yl)-1-oxoisoindolin-5-yl)indoline-1-carboxamide] |  |  |  |  | DC50 (CK1α [1]): < 0.1 µM; IC50 (CRBN/DDB1): 100 to 1000 nM
2 | < 0.1 | 100 to 1000 | < 0.1 | COC[C@@H]1Cc2ccccc2N1C(=O)Nc1ccc2c(c1)CN(C1CCC(=O)NC1=O)C2=O (stereo partly drawn) [Compound 288, (2S)—N-(2-(2,6-dioxopiperidin-3-yl)-1-oxoisoindolin-5-yl)-2-(methoxymethyl)indoline-1-carboxamide] | < 0.1 | 0.1 to 1 | 0.1 to 1 | 0.1 to 1 | AUC ([3]; PO 10 mg/kg): 29700 ± 2450 ng·h/mL; AUC(0-t) ([3]; PO 10 mg/kg): 29600 ± 2460 ng·h/mL; Cmax ([3]; PO 10 mg/kg): 6870 ± 761 ng/mL; Tmax ([3]; PO 10 mg/kg): 49.8 ± 17.4 min; half-life ([3]; PO 10 mg/kg): 163 ± 29.4 min
3 | < 0.1 | 100 to 1000 |  | COC[C@H]1Cc2c(F)cccc2N1C(=O)Nc1ccc2c(c1)CN(C1CCC(=O)NC1=O)C2=O (stereo partly drawn) [Compound 303, (2R)—N-(2-(2,6-dioxopiperidin-3-yl)-1-oxoisoindolin-5-yl)-4-fluoro-2-(methoxymethyl)indoline-1-carboxamide] |  |  |  |  | AUC ([3]; PO 5 mg/kg (cassette dose)): 12700 ± 1760 ng·h/mL; AUC(0-t) ([3]; PO 5 mg/kg (cassette dose)): 12300 ± 1710 ng·h/mL; Cmax ([3]; PO 5 mg/kg (cassette dose)): 7790 ± 1060 ng/mL; Tmax ([3]; PO 5 mg/kg (cassette dose)): 30 min; half-life ([3]; PO 5 mg/kg (cassette dose)): 90.6 ± 13.2 min
4 | < 0.1 | 100 to 1000 | 0.1 to 1 | COC[C@H]1Cc2c(C3CC3)cccc2N1C(=O)Nc1ccc2c(c1)CN(C1CCC(=O)NC1=O)C2=O (stereo partly drawn) [Compound 332, (2R)-4-cyclopropyl-N-(2-(2,6-dioxopiperidin-3-yl)-1-oxoisoindolin-5-yl)-2-(methoxymethyl)indoline-1-carboxamide] | < 0.1 | 0.1 to 1 | 0.1 to 1 | 0.1 to 1 | 
5 | < 0.1 | 100 to 1000 |  | COCC1c2ccc(C3CC3)cc2CN1C(=O)Nc1ccc2c(c1)CN(C1CCC(=O)NC1=O)C2=O (stereo not drawn) [Compound 335, 5-cyclopropyl-N-(2-(2,6-dioxopiperidin-3-yl)-1-oxoisoindolin-5-yl)-1-(methoxymethyl)isoindoline-2-carboxamide] |  |  |  |  | AUC ([3]; PO 10 mg/kg): 13400 ± 696 ng·h/mL; AUC(0-t) ([3]; PO 10 mg/kg): 13300 ± 694 ng·h/mL; Cmax ([3]; PO 10 mg/kg): 10600 ± 697 ng/mL; Tmax ([3]; PO 10 mg/kg): 15 min; half-life ([3]; PO 10 mg/kg): 64.8 ± 2.4 min
6 | < 0.1 | 100 to 1000 | < 0.1 | COC[C@H]1CN(C(=O)Nc2ccc3c(c2)CN(C2CCC(=O)NC2=O)C3=O)c2ccccc21 (stereo partly drawn) [Compound 338, (3R)—N-(2-(2,6-dioxopiperidin-3-yl)-1-oxoisoindolin-5-yl)-3-(methoxymethyl)indoline-1-carboxamide] | 0.1 to 1 | < 0.1 | < 0.1 | < 0.1 | 
7 | < 0.1 | 100 to 1000 | 0.1 to 1 | COC[C@@H]1Cc2c(C3CC3)cccc2N1C(=O)Nc1ccc2c(c1)CN(C1CCC(=O)NC1=O)C2=O (stereo partly drawn) [Compound 339, (2S)-4-cyclopropyl-N-(2-(2,6-dioxopiperidin-3-yl)-1-oxoisoindolin-5-yl)-2-(methoxymethyl)indoline-1-carboxamide] | 0.1 to 1 | 0.1 to 1 | > 1 | 0.1 to 1 | 
8 | < 0.1 | 100 to 1000 | < 0.1 | O=C1CCC(N2Cc3cc(NC(=O)N4CCc5c4cccc5-n4cccn4)ccc3C2=O)C(=O)N1 (stereo not drawn) [Compound 340, N-(2-(2,6-dioxopiperidin-3-yl)-1-oxoisoindolin-5-yl)-4-(1H-pyrazol-1-yl)indoline-1-carboxamide] | 0.1 to 1 | < 0.1 | 0.1 to 1 | < 0.1 | 
9 | < 0.1 | 100 to 1000 | < 0.1 | COCc1cccc2c1CCN2C(=O)Nc1ccc2c(c1)CN(C1CCC(=O)NC1=O)C2=O (stereo not drawn) [Compound 341] | 0.1 to 1 | < 0.1 | 0.1 to 1 | 0.1 to 1 | 
10 | < 0.1 | 100 to 1000 | < 0.1 | CC1(c2ccc3c(c2)CCN3C(=O)Nc2ccc3c(c2)CN(C2CCC(=O)NC2=O)C3=O)CC1 (stereo not drawn) [Compound 344, N-(2-(2,6-dioxopiperidin-3-yl)-1-oxoisoindolin-5-yl)-5-(1-methylcyclopropyl)indoline-1-carboxamide] | < 0.1 | < 0.1 | 0.1 to 1 | 0.1 to 1 | 
11 | < 0.1 | 100 to 1000 | < 0.1 | O=C1CCC(N2Cc3cc(NC(=O)N4CCc5cc(C6CC6)ccc54)ccc3C2=O)C(=O)N1 (stereo not drawn) [Compound 348, 5-cyclopropyl-N-(2-(2,6-dioxopiperidin-3-yl)-1-oxoisoindolin-5-yl)indoline-1-carboxamide] | < 0.1 | < 0.1 | < 0.1 | < 0.1 | 

Row | SMILES | DC50 (CK1α [2]) [µM] | IC50 (CRBN/DDB1; [4]) [nM] | GI50 (SKCO1 cell line; [5]) [µM] | GI50 (CW2 cell line; [6]) [µM] | GI50 (GP2D cell line; [7]) [µM] | GI50 (LS180 cell line; [8]) [µM] | GI50 (LS174T cell line; [9]) [µM] | further results
12 | O=C1CCC(N2Cc3cc(NC(=O)N4CCc5cc(C6CCC6)ccc54)ccc3C2=O)C(=O)N1 (stereo not drawn) [Compound 357, 5-cyclobutyl-N-(2-(2,6-dioxopiperidin-3-yl)-1-oxoisoindolin-5-yl)indoline-1-carboxamide] | < 0.1 | > 1000 |  |  |  |  |  | GI50 (SKCO1 cell line; SK-CO-1, read-out: SKCO1 GI50 (μM)): < 0.1 µM; GI50 (CW2 cell line; CW-2, read-out: CW2 GI50 (μM)): < 0.1 µM; GI50 (GP2D cell line; GP2d, read-out: GP2D GI50 (μM)): < 0.1 µM; GI50 (LS180 cell line; LS180, read-out: LS180 GI50 (μM)): 0.1 to 1 µM; GI50 (LS174T cell line; read-out: LS174T GI50 (μM)): < 0.1 µM
